# Laboratory results from patent publication US10125098B2, “Therapeutic compounds and methods of use thereof” (GENENTECH, INC., priority 2014, dated 2018).
# Where a name gives a salt, the structure may show the parent alone. Read-outs that look alike come from different tables or passages of the source.
# Key:
# human NaV1.7 = target: T1, human NaV1.7 (Homo sapiens, UniProt Q15858); assay: Patch voltage clamp electrophysiology assay (EP), NaV1.7; assay type: cell-based; details: HEK-293 cells stably expressing NaV1.7 with β1 subunit; whole-cell patch clamp, membrane potential −60 mV (inactivated state)
# T1 construct: permanently transfected with an expression vector containing the full-length cDNA coding for the desired human sodium channel α-subunit; expressed in transfected cells; host or cells: HEK-293
# T1 sequence (Q15858 1-1977 isoform Q15858-3): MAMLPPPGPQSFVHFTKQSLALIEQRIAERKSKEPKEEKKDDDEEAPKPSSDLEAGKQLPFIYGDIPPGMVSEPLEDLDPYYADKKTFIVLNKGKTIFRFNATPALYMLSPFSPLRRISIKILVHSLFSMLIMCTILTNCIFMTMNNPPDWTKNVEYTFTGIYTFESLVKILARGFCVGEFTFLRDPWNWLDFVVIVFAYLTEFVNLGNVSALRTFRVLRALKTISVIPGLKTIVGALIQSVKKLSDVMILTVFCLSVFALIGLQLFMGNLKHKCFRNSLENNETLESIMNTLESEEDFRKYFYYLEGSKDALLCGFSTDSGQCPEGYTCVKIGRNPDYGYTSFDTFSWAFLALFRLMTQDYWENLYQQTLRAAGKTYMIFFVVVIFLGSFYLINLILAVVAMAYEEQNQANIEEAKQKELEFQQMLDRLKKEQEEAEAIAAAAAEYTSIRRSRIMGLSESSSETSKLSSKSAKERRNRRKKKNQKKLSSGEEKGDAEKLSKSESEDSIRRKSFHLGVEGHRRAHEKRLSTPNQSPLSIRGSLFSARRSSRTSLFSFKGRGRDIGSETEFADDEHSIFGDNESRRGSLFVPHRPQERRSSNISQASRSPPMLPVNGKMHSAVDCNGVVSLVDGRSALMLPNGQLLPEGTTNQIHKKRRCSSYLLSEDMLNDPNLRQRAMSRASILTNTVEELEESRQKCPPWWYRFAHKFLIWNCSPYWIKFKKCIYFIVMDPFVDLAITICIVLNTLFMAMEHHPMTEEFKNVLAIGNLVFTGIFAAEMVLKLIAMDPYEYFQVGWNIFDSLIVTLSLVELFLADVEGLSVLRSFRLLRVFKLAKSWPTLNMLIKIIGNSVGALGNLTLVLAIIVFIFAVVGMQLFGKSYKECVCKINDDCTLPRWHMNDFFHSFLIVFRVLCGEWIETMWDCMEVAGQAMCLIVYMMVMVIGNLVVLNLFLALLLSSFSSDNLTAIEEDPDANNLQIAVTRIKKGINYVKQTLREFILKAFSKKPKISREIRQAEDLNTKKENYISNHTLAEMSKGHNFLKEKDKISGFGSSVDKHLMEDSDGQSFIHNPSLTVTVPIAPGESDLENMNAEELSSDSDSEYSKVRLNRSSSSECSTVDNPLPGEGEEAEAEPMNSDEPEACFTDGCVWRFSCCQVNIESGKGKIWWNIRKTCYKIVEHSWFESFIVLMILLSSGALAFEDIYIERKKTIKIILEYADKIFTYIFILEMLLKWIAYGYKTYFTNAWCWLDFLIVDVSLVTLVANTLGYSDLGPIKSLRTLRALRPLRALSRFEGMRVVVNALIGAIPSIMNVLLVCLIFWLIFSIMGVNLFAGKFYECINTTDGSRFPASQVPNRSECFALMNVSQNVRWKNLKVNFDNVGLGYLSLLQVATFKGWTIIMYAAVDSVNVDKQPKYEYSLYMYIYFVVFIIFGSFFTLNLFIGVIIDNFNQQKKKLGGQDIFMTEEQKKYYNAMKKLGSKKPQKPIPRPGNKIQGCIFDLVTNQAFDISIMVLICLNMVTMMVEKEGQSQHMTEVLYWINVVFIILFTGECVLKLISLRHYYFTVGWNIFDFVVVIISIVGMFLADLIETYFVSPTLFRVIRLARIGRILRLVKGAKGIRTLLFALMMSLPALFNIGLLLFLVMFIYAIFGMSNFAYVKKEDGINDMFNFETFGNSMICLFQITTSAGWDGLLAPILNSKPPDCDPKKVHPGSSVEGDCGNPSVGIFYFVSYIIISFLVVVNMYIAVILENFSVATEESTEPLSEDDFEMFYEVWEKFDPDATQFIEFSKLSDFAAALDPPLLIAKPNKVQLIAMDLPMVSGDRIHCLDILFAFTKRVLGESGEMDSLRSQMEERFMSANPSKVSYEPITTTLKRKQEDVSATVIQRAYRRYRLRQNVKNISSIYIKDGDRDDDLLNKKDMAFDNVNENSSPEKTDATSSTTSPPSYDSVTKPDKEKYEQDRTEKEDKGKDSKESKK
# T1 sequence (Q07699 19-218 partner): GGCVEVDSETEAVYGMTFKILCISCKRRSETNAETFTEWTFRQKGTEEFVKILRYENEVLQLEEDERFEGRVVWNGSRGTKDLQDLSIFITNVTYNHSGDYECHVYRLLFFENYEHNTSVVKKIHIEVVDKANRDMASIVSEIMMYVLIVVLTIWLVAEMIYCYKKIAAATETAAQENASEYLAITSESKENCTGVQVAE
# Experimental: (§1) The following patch voltage clamp electrophysiology studies were performed on representative compounds of the invention using human embryonic kidney cells (HEK), permanently transfected with an expression vector containing the full-length cDNA coding for the desired human sodium channel α-subunit, grown in culture media containing 10% FBS, 1% PSG, and 0.5 mg/mL G418 at 37° C. with 5% CO2. […] NaV1.7 and NaV1.5 cDNAs (NM_002977 and AC137587; SCN5A, respectively) were stably expressed in HEK-293 cells. The β1 subunit was coexpressed in both the NaV1.7 and NaV1.5 cell lines.
# (§2) Sodium currents were measured using the patch clamp technique in the whole-cell configuration using either a PatchXpress automated voltage clamp or manually using an Axopatch 200B (Axon Instruments) or Model 2400 (A-M systems) amplifier. The manual voltage clamp protocol was as follows: Borosilicate glass micropipettes were fire-polished to a tip diameter yielding a resistance of 2-4 Mohms in the working solutions. The pipette was filled with a solution comprised of: 5 mM NaCl, 10 mM CsCl, 120 mM CsF, 0.1 mM CaCl2, 2 mM MgCl2, 10 mM HEPES, 10 mM EGTA; and adjusted to pH 7.2 with CsOH. The external solution had the following composition: 140 mM NaCl, 5 mM KCl, 2 mM CaCl2, 1 mM MgCl2, 10 mM HEPES; and adjusted to pH 7.4 with NaOH. In some studies, the external sodium was reduced by equimolar replacement with choline. Osmolarity in the CsF internal and NaCl external solutions was adjusted to 300 mOsm/kg and 310 mOsm/kg with glucose, respectively. All recordings were performed at ambient temperature in a bath chamber with a volume of 150 μL. Control sodium currents were measured in 0.5% DMSO. Controls and representative compounds of the invention were applied to the recording chamber through a 4-pinch or 8-pinch valve bath perfusion system manufactured by ALA Scientific Instruments.
# (§3) Series resistance compensation was applied (60-80%). […] All statistics in this study are given as mean±SD.
# (§4) The membrane potential was maintained at a voltage where inactivation of the channel is complete (which was −60 mV for both NaV1.7 and NaV1.5). The voltage is then stepped back to a very negative (Vhold=[…]) voltage for 20 ms and then a test pulse is applied to quantify the compound block. […] The percent decrease in sodium current following wash-on of compound was taken as the percent block of sodium channels.
# hNav1.7 = target: T2, hNav1.7 (Homo sapiens, UniProt Q15858); assay: Tritiated compound binding (LBA) to membranes from cells expressing hNav1.7 and the β1 subunit, competitive binding; details: competitive binding vs 100 pM [3H]compound, 18 h, room temperature, membranes with hNav1.7 and β1 subunit
# T2 construct: expressed in transfected cells
# T2 sequence (Q15858 1-1977 isoform Q15858-3): as the sequence (Q15858 1-1977 isoform Q15858-3) above
# T2 sequence (Q07699 19-218 partner): as the sequence (Q07699 19-218 partner) above
# Procedure, shortened: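 Competitive displacement of 100 pM [3H]compound (tritiated methyl analogue of formula (I)) from hNav1.7/β1 membranes, 18 h at room temperature in NaCl/Tris pH 7.4 buffer containing 0.01% BSA. 1 μM unlabeled compound set non-specific binding. Bound label quantified by scintillation after filtration; 4-parameter fit gave IC50.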
# NaV1.5 = target: T3, NaV1.5 (Homo sapiens, UniProt Q14524); assay: Patch voltage clamp electrophysiology assay (EP), NaV1.5; assay type: cell-based
# T3 construct: permanently transfected with an expression vector containing the full-length cDNA coding for the desired human sodium channel α-subunit; expressed in transfected cells; host or cells: HEK-293
# T3 sequence (Q14524 whole entry): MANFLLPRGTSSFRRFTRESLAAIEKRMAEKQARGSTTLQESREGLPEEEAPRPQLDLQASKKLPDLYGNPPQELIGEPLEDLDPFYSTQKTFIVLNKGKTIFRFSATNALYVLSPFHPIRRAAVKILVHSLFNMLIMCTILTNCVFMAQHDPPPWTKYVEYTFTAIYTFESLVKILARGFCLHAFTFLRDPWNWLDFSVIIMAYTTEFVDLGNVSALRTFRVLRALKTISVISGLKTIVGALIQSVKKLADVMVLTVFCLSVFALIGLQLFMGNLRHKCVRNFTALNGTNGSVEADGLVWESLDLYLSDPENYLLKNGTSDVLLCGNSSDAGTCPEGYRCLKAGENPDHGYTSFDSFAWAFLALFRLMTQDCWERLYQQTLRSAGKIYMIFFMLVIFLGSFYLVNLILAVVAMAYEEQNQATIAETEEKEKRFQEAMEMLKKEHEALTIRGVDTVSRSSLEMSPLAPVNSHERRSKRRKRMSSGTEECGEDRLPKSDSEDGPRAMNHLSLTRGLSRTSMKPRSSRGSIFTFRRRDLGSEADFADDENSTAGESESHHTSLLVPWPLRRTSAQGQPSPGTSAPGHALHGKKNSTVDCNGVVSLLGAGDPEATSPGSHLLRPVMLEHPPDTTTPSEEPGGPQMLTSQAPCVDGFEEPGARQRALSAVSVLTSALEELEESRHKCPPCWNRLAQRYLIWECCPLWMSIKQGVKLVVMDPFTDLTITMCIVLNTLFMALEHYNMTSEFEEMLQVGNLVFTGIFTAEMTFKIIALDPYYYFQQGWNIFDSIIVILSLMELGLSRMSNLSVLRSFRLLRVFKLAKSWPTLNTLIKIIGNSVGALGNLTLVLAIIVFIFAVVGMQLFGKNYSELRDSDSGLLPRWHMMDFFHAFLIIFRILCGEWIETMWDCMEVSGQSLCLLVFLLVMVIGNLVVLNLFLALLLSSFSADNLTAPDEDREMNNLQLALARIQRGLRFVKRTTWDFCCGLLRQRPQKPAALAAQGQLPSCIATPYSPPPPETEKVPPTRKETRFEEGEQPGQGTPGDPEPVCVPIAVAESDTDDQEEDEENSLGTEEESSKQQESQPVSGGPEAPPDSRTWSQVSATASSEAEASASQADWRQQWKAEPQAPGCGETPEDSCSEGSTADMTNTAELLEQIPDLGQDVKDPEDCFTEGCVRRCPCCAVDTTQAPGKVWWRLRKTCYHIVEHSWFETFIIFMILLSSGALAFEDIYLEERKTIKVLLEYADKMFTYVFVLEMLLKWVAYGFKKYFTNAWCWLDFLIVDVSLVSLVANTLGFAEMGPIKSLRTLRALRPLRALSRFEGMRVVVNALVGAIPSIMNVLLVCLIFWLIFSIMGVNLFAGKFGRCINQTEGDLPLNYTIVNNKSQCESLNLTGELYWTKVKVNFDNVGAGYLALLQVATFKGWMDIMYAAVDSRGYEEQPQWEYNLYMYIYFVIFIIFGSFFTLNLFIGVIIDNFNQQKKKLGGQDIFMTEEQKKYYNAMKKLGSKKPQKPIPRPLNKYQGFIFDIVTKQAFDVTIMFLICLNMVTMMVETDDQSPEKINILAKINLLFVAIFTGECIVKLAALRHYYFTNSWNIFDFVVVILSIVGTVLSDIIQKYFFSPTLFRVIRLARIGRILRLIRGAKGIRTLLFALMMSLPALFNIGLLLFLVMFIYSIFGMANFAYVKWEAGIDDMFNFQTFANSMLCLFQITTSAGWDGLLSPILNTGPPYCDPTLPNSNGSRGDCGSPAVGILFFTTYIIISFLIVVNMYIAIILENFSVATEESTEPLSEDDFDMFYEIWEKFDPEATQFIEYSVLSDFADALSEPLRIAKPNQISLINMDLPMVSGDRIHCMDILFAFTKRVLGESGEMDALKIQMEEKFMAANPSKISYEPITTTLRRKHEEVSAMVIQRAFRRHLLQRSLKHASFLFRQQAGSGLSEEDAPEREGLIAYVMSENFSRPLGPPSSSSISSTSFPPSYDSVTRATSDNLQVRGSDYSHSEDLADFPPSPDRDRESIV
# Experimental: as §1, §2, §3, §4
# [1] = HEK-293 cells stably expressing NaV1.5 with β1 subunit, whole-cell patch clamp, membrane potential −60 mV (inactivated state), read-out: Nav1.5
# [2] = human, HEK-293 cells stably expressing human NaV1.5 with β1 subunit, pH 7.4, HEK-293 cells stably expressing NaV1.5 with β1 subunit, whole-cell patch clamp, membrane potential −60 mV (inactivated state)
SMILES,IC50 (human NaV1.7),IC50 (hNav1.7),IC50 (NaV1.5),IC50 (NaV1.5; [1]),IC50 (NaV1.5; [2])
"O=C(O)[C@@H]1CC2(CC2)CN1C(=O)c1cc(C2CC2)c(OCC2(F)CCN(Cc3ccc(C(F)(F)F)cc3Cl)CC2)cc1F [Example 124, (S)-5-(4-((1-(2-chloro-4-(trifluoromethyl)benzyl)-4-fluoropiperidin-4-yl)methoxy)-5-cyclopropyl-2-fluorobenzoyl)-5-azaspiro[2.4]heptane-6-carboxylic acid]",1500 nM,400 nM,12 µM,,
"O=C(O)[C@@H]1CCCN1C(=O)c1cc(C2CC2)c(OCC2(F)CN(Cc3ccc(Cl)cc3C(F)(F)F)C2)cc1F [Example 99, 1-(4-((1-(4-chloro-2-(trifluoromethyl)benzyl)-3-fluoroazetidin-3-yl)methoxy)-5-cyclopropyl-2-fluorobenzoyl)pyrrolidine-2-carboxylic acid trifluoroacetic acid salt]",550 nM,230 nM,,,≥ 30 µM
"O=C(NC(C(=O)O)C1CCC1)c1cc(C2CC2)c(OCC2(F)CCN(Cc3cc(C(F)(F)F)ccc3Cl)CC2)cc1F (stereo not drawn) [Example 110, 2-(4-((1-(2-chloro-5-(trifluoromethyl)benzyl)-4-fluoropiperidin-4-yl)methoxy)-5-cyclopropyl-2-fluorobenzamido)-2-cyclobutyl acetic acid]",10000 nM,370 nM,,10 µM,
"O=C(O)[C@H]1CSCN1C(=O)c1cc(C2CC2)c(OCC23CC4CC(CC(C4)C2)C3)cc1F [Example 50, (4S)-3-[4-(1-adamantylmethoxy)-5-cyclopropyl-2-fluoro-benzoyl]thiazolidine-4-carboxylic acid]",340 nM,30 nM,,19.4 µM,
"O=C(NC1(C(=O)O)CC1)c1cc(C2CC2)c(OCC23CC4CC(CC(C4)C2)C3)cc1F [Example 6, 1-(4-(adamantan-1-ylmethoxy)-5-cyclopropyl-2-fluorobenzamido)-cyclopropanecarboxylic acid]",532 nM,3580 nM,,2.12 µM,
"CC(C)C[C@H](NC(=O)c1cc(C2CC2)c(OCC23CC4CC(CC(C4)C2)C3)cc1F)C(=O)O [Example 88, (S)-2-(4-(adamantan-1-ylmethoxy)-5-cyclopropyl-2-fluorobenzamido)-4-methylpentanoic acid]",7000 nM,430 nM,,8.2 µM,
"O=C(O)[C@@H]1C[C@@H](F)CN1C(=O)c1cc(C2CC2)c(OCC2(F)CCN(Cc3cc(C(F)(F)F)cc(Cl)c3F)CC2)cc1F [Example 102, (2S,4R)-1-(4-((1-(3-chloro-2-fluoro-5-(trifluoromethyl)benzyl)-4-fluoropiperidin-4-yl)methoxy)-5-cyclopropyl-2-fluorobenzoyl)-4-fluoropyrrolidine-2-carboxylic acid]",330 nM,65 nM,,23 µM,
"COC[C@H](c1cc(Cl)cc(Cl)c1)N1CCC(COc2cc(F)c(C(=O)N3C[C@H](F)C[C@H]3C(=O)O)cc2C2CC2)CC1 [Example 130, (2S,4R)-1-(5-cyclopropyl-4-((1-((S)-1-(3,5-dichlorophenyl)-2-methoxyethyl)piperidin-4-yl)methoxy)-2-fluorobenzoyl)-4-fluoropyrrolidine-2-carboxylic acid]",160 nM,27 nM,,14 µM,
"O=C(N[C@H](C(=O)O)C1CC1)c1cc(C2CC2)c(OCC23CC4CC(CC(C4)C2)C3)cc1F [Example 74, (S)-2-(4-(adamantan-1-ylmethoxy)-5-cyclopropyl-2-fluorobenzamido)-2-cyclopropylacetic acid]",700 nM,24 nM,,7.5 µM,
"C[C@@H](c1cc(Cl)cc(Cl)c1)N1CCC[C@H](COc2cc(F)c(C(=O)N3CCC[C@H]3C(=O)O)cc2C2CC2)C1 (single isomer, unassigned) [Example 73b]",1500 nM,93 nM,,22 µM,
"O=C(O)[C@@H]1C[C@H]2C[C@H]2N1C(=O)c1cc(C2CC2)c(OCC23CC4CC(CC(C4)C2)C3)cc1F [Example 60, (1R, 3S, 5R)-2-(4-((adamantan-1-yl)methoxy)-5-cyclopropyl-2-fluorobenzoyl)-2-azabicyclo[3.1.0]hexane-3-carboxylic acid]",1900 nM,340 nM,,13 µM,

# More lines, main results first:
IC50 (human NaV1.7),IC50 (hNav1.7),SMILES,IC50 (NaV1.5),IC50 (NaV1.5; [1]),IC50 (NaV1.5; [2])
6600 nM,9100 nM,"NC(=O)[C@@H]1CCCN1C(=O)c1cc(C2CC2)c(COc2cc(Cl)cc(OC(F)(F)F)c2)cc1F [Example 188, (5)-1-(4-((3-chloro-5-(trifluoromethoxy)phenoxy)methyl)-5-cyclopropyl-2-fluorobenzoyl)pyrrolidine-2-carboxamide]",,16 µM,
170 nM,14 nM,"O=C(O)[C@@H]1C[C@@H](F)CN1C(=O)c1cc(C2CC2)c(OCC2CCN([C@H](c3cc(Cl)cc(Cl)c3)C(F)(F)F)CC2)cc1F (single isomer, unassigned) [Example 140a]",,2.7 µM,
5000 nM,650 nM,"O=C(O)[C@@H]1CCCN1C(=O)c1cc(C2CC2)c(OC[C@H]2CCN(C(c3ccccc3)c3ccccc3)C2)cc1F (single isomer, unassigned) [Example 139a]",,25 µM,
4400 nM,1900 nM,"CC1(C)[C@@H]2[C@@H](C(=O)O)N(C(=O)c3cc(C4CC4)c(OCC45CC6CC(CC(C6)C4)C5)cc3F)C[C@@H]21 [Example 202, (1R,2S,5S)-3-(4-(adamantan-1-ylmethoxy)-5-cyclopropyl-2-fluorobenzoyl)-6,6-dimethyl-3-azabicyclo[3.1.0]hexane-2-carboxylic acid]",,16 µM,
220 nM,32 nM,"O=C(O)[C@@H]1CCCN1C(=O)c1cc(C2CC2)c(COc2cc(Cl)cc(OC(F)(F)F)c2)cc1F [Example 182, (S)-1-(4-((3-chloro-5-(trifluoromethoxy)phenoxy)methyl)-5-cyclopropyl-2-fluorobenzoyl)pyrrolidine-2-carboxylic acid]",,25 µM,
100 nM,14 nM,"C[C@H]1OCN(C(=O)c2cc(C3CC3)c(OCC3CCN(Cc4c(Cl)cccc4Cl)CC3)cc2F)[C@@H]1C(=O)O [Example 224, (4S,5R)-3-(5-cyclopropyl-4-((1-(2,6-dichlorobenzyl)piperidin-4-yl)methoxy)-2-fluorobenzoyl)-5-methyloxazolidine-4-carboxylic acid]",,22 µM,
5900 nM,1900 nM,"Cc1nn(C2CCN(c3ccc(Cl)c(C(F)(F)F)n3)CC2)c2cc(F)c(C(=O)N3CCC[C@H]3C(=O)O)cc12 [Example 195, (S)-1-(1-(1-(5-chloro-6-(trifluoromethyl)pyridin-2-yl)piperidin-4-yl)-6-fluoro-3-methyl-1H-indazole-5-carbonyl)pyrrolidine-2-carboxylic acid trifluoroacetate]",,,≥ 30 µM
430 nM,24 nM,"C[C@H](c1cc(Cl)cc(Cl)c1)N1CCC(C)(COc2cc(F)c(C(=O)N3C[C@H](F)C[C@H]3C(=O)O)cc2C2CC2)CC1 (single isomer, unassigned) [Example 132b]",,,≥ 30 µM
990 nM,20 nM,"O=C(O)[C@@H]1CCCN1C(=O)c1cc(C2CC2)c(OCC2CCN(C(c3ccccc3)c3cc(Cl)cc(Cl)c3)CC2)cc1F (stereo partly drawn) [Example 193, (2S)-1-(5-Cyclopropyl-4-((1-((3,5-dichlorophenyl)(phenyl)methyl)piperidin-4-yl)methoxy)-2-fluorobenzoyl)pyrrolidine-2-carboxylic acid trifluoroacetate]",,7.6 µM,
